Test results as given in publication PMC7162861, “Synthesis, cytotoxicity, pharmacokinetic profile, binding with DNA and BSA of new imidazo[1,2-a]pyrazine-benzo[d]imidazol-5-yl hybrids” (Scientific Reports, 2020).

Assays:
M14 = experiment: NCI cytotoxicity screen, Melanoma panel; type: cell-based, human; settings: Homo sapiens, single dose 10 µM, negative = lethal, read-out: Percent growth inhibition
Description: (§1) Cytotoxicity was performed at National Cancer Institute (NCI), Bethesda, USA as per their protocols.

LOX IMVI = experiment: NCI cytotoxicity screen, Melanoma panel; type: cell-based, human; settings: Homo sapiens, single dose 10 µM, negative = lethal, read-out: Percent growth inhibition
Description: as §1

UACC-62 = experiment: NCI cytotoxicity screen, Melanoma panel; type: cell-based, human; settings: Homo sapiens, single dose 10 µM, negative = lethal, read-out: Percent growth inhibition
Description: as §1

K-562 = experiment: NCI cytotoxicity screen, Leukemia panel; type: cell-based; settings: Homo sapiens, K562; K-562; single dose 10 µM; negative = lethal; read-out: Percent growth inhibition
Description: as §1

MOLT-4 = experiment: NCI cytotoxicity screen, Leukemia panel; type: cell-based; settings: Homo sapiens, MOLT-4, MOLT-4; single dose 10 µM; negative = lethal; read-out: Percent growth inhibition
Description: as §1

SR = experiment: NCI cytotoxicity screen, Leukemia panel; type: cell-based; settings: Homo sapiens, single dose 10 µM, negative = lethal, read-out: Percent growth inhibition
Description: as §1

RPMI-8226 = experiment: NCI cytotoxicity screen, Leukemia panel; type: cell-based; settings: Homo sapiens; RPMI-8226; single dose 10 µM; negative = lethal; read-out: Percent growth inhibition
Description: as §1

HL-60(TB) = experiment: NCI cytotoxicity screen, Leukemia panel; type: cell-based; settings: Homo sapiens, HL-60, HL-60(TB); single dose 10 µM; negative = lethal; read-out: Percent growth inhibition
Description: as §1

CCRF-CEM = experiment: NCI cytotoxicity screen, Leukemia panel; type: cell-based; settings: Homo sapiens, single dose 10 µM, negative = lethal, read-out: Percent growth inhibition
Description: as §1

PC-3 = experiment: NCI cytotoxicity screen, Prostate Cancer panel; type: cell-based, human; settings: Homo sapiens, single dose 10 µM, negative = lethal, read-out: Percent growth inhibition
Description: as §1

DU-145 = experiment: NCI cytotoxicity screen, Prostate Cancer panel; type: cell-based, human; settings: Homo sapiens, single dose 10 µM, negative = lethal, read-out: Percent growth inhibition
Description: as §1

KM12 = experiment: NCI cytotoxicity screen, Colon Cancer panel; type: cell-based, human; settings: Homo sapiens, single dose 10 µM, negative = lethal, read-out: Percent growth inhibition
Description: as §1

SW-620 = experiment: NCI cytotoxicity screen, Colon Cancer panel; type: cell-based, human; settings: Homo sapiens, single dose 10 µM, negative = lethal, read-out: Percent growth inhibition
Description: as §1

HCC-2998 = experiment: NCI cytotoxicity screen, Colon Cancer panel; type: cell-based, human; settings: Homo sapiens; HCC-2998; single dose 10 µM; negative = lethal; read-out: Percent growth inhibition
Description: as §1

NCI-H460 = experiment: NCI cytotoxicity screen, Non-Small Cell Lung Cancer panel; type: cell-based; settings: Homo sapiens, single dose 10 µM, negative = lethal, read-out: Percent growth inhibition
Description: as §1

EXVX = experiment: as above; type: cell-based; settings: Homo sapiens; EXVX; single dose 10 µM; negative = lethal; read-out: Percent growth inhibition
Description: as §1

HOP-62 = experiment: as above; type: cell-based; settings: Homo sapiens, single dose 10 µM, negative = lethal, read-out: Percent growth inhibition
Description: as §1

A549/ATCC = experiment: as above; type: cell-based; settings: Homo sapiens; A549/ATCC; single dose 10 µM; negative = lethal; read-out: Percent growth inhibition
Description: as §1

COLO 205 = experiment: NCI cytotoxicity screen, Colon Cancer panel; type: cell-based; settings: Homo sapiens, single dose 10 µM, negative = lethal, read-out: Percent growth inhibition
Description: as §1

HT29 = experiment: NCI cytotoxicity screen, Colon Cancer panel; type: cell-based; settings: Homo sapiens, HT-29; HT29; single dose 10 µM; negative = lethal; read-out: Percent growth inhibition
Description: as §1

HCT-15 = experiment: NCI cytotoxicity screen, Colon Cancer panel; type: cell-based; settings: Homo sapiens, single dose 10 µM, negative = lethal, read-out: Percent growth inhibition
Description: as §1

HCT-116 = experiment: NCI cytotoxicity screen, Colon Cancer panel; type: cell-based; settings: Homo sapiens, single dose 10 µM, negative = lethal, read-out: Percent growth inhibition
Description: as §1

ACHN = experiment: NCI cytotoxicity screen, Renal Cancer panel; type: cell-based; settings: Homo sapiens, single dose 10 µM, negative = lethal, read-out: Percent growth inhibition
Description: as §1

RXF 393 = experiment: NCI cytotoxicity screen, Renal Cancer panel; type: cell-based; settings: Homo sapiens, single dose 10 µM, negative = lethal, read-out: Percent growth inhibition
Description: as §1

SN12C = experiment: NCI cytotoxicity screen, Renal Cancer panel; type: cell-based; settings: Homo sapiens, single dose 10 µM, negative = lethal, read-out: Percent growth inhibition
Description: as §1

UO-31 = experiment: NCI cytotoxicity screen, Renal Cancer panel; type: cell-based; settings: Homo sapiens, single dose 10 µM, negative = lethal, read-out: Percent growth inhibition
Description: as §1

A498 = experiment: NCI cytotoxicity screen, Renal Cancer panel; type: cell-based; settings: Homo sapiens, single dose 10 µM, negative = lethal, read-out: Percent growth inhibition
Description: as §1

CAKI-1 = experiment: NCI cytotoxicity screen, Renal Cancer panel; type: cell-based; settings: Homo sapiens; CAKI-1; single dose 10 µM; negative = lethal; read-out: Percent growth inhibition
Description: as §1

TK-10 = experiment: NCI cytotoxicity screen, Renal Cancer panel; type: cell-based, human; settings: Homo sapiens, single dose 10 µM, negative = lethal, read-out: Percent growth inhibition
Description: as §1

786-0 = experiment: NCI cytotoxicity screen, Renal Cancer panel; type: cell-based, human; settings: Homo sapiens, single dose 10 µM, negative = lethal, read-out: Percent growth inhibition
Description: as §1

SNB-19 = experiment: NCI cytotoxicity screen, CNS Cancer panel; type: cell-based; settings: Homo sapiens; SNB-19; single dose 10 µM; negative = lethal; read-out: Percent growth inhibition
Description: as §1

SNB-75 = experiment: NCI cytotoxicity screen, CNS Cancer panel; type: cell-based; settings: Homo sapiens, single dose 10 µM, negative = lethal, read-out: Percent growth inhibition
Description: as §1

U251 = experiment: NCI cytotoxicity screen, CNS Cancer panel; type: cell-based; settings: Homo sapiens, U-251; U251; single dose 10 µM; negative = lethal; read-out: Percent growth inhibition
Description: as §1

SF-295 = experiment: NCI cytotoxicity screen, CNS Cancer panel; type: cell-based; settings: Homo sapiens, single dose 10 µM, negative = lethal, read-out: Percent growth inhibition
Description: as §1

SF-539 = experiment: NCI cytotoxicity screen, CNS Cancer panel; type: cell-based; settings: Homo sapiens, single dose 10 µM, negative = lethal, read-out: Percent growth inhibition
Description: as §1

SF-268 = experiment: NCI cytotoxicity screen, CNS Cancer panel; type: cell-based; settings: Homo sapiens, single dose 10 µM, negative = lethal, read-out: Percent growth inhibition
Description: as §1

MDA-MB-435 = experiment: NCI cytotoxicity screen, Melanoma panel; type: cell-based; settings: Homo sapiens, MDA-MB-435, read-out: Percent growth inhibition
Description: as §1

SK-MEL-28 = experiment: NCI cytotoxicity screen, Melanoma panel; type: cell-based; settings: Homo sapiens, single dose 10 µM, negative = lethal, read-out: Percent growth inhibition
Description: as §1

SK-MEL-5 = experiment: NCI cytotoxicity screen, Melanoma panel; type: cell-based; settings: Homo sapiens, single dose 10 µM, negative = lethal, read-out: Percent growth inhibition
Description: as §1

SK-MEL-2 = experiment: NCI cytotoxicity screen, Melanoma panel; type: cell-based; settings: Homo sapiens, single dose 10 µM, negative = lethal, read-out: Percent growth inhibition
Description: as §1

MALME-3M = experiment: NCI cytotoxicity screen, Melanoma panel; type: cell-based; settings: Homo sapiens; MALME-3M; single dose 10 µM; negative = lethal; read-out: Percent growth inhibition
Description: as §1

UACC-257 = experiment: NCI cytotoxicity screen, Melanoma panel; type: cell-based; settings: Homo sapiens, single dose 10 µM, negative = lethal, read-out: Percent growth inhibition
Description: as §1

[1] = Experimental log P, shake-flask method; type: physicochemical; settings: n-octanol/phosphate buffer pH 7.4, read-out: Exp. Log P
Description: Partition coefficients or experimental log P values of all synthesized compounds (9–23, 30 and 31) were calculated using the shake-flask method. Log P values were determined using n-octanol and phosphate buffer (pH = 7.4) at 10:1 ratio of volumes. Stock solutions (10^−3 M) of compounds were prepared in DMSO. Glass vials were used to make final solutions i.e. stock solution (250 µL) and phosphate buffer (125 µL). To record the absorbance, wavelength was selected based on λmax of the respective compound. Initial absorbance (Ai) for every compound was noted consuming the stock solution in the buffer phase. Now added n-octanol to every vial and shaken well using a mechanical shaker for 50 minutes. To get separation of both phases, glass vials were centrifuged for 35 min. at 2500 rpm. Then, the layer of octanol was separated from glass vial. The final absorbance (Af) of each compound was recorded by using the buffer layer. The values of P for compounds were determined by the following equation (Eq. 8):8 P=Ai−Af/Af×Vw/Vo

c1ccc2c(-c3cn4ccnc4c(-c4ccc5c(c4)ncn5C4CCCCC4)n3)cccc2c1 [Compound 12, 8-(1-cyclohexyl-1H-benzo[d]imidazol-5-yl)-6-(naphthalen-1-yl)imidazo[1,2-a]pyrazine]
inhibition at 10 µM (M14): 0.39% | inhibition at 10 µM (LOX IMVI): 11.4% | inhibition at 10 µM (UACC-62): 21% | inhibition at 10 µM (K-562): 38% | inhibition at 10 µM (MOLT-4): ~50% | inhibition at 10 µM (SR): 10.9% | inhibition at 10 µM (RPMI-8226): 38.2% | inhibition at 10 µM (HL-60(TB)): ~50% | inhibition at 10 µM (CCRF-CEM): 27.2% | inhibition at 10 µM (PC-3): 13.3% | inhibition at 10 µM (DU-145): 6.09% | inhibition at 10 µM (KM12): 8.69% | inhibition at 10 µM (SW-620): 1.43% | inhibition at 10 µM (HCC-2998): < 1% | inhibition at 10 µM (NCI-H460): 7.35% | inhibition at 10 µM (EXVX): 29.6% | inhibition at 10 µM (HOP-62): 13.2% | inhibition at 10 µM (A549/ATCC): 36.2% | inhibition at 10 µM (COLO 205): < 1% | inhibition at 10 µM (HT29): 16.5% | inhibition at 10 µM (HCT-15): 15.3% | inhibition at 10 µM (HCT-116): 23.7% | inhibition at 10 µM (ACHN): 8.22% | inhibition at 10 µM (RXF 393): 0.15% | inhibition at 10 µM (SN12C): 13.6% | inhibition at 10 µM (UO-31): 37.9% | inhibition at 10 µM (A498): < 1% | inhibition at 10 µM (CAKI-1): 20.7% | inhibition at 10 µM (TK-10): 5.82% | inhibition at 10 µM (786-0): 13.3% | inhibition at 10 µM (SNB-19): 16.7% | inhibition at 10 µM (SNB-75): 9.15% | inhibition at 10 µM (U251): 27.9% | inhibition at 10 µM (SF-295): 7.88% | inhibition at 10 µM (SF-539): 7.72% | inhibition at 10 µM (SF-268): 11.8% | inhibition at 10 µM (MDA-MB-435): 4.07% | inhibition at 10 µM (SK-MEL-28): < 1% | inhibition at 10 µM (SK-MEL-5): 2.13% | inhibition at 10 µM (SK-MEL-2): 20.6% | inhibition at 10 µM (MALME-3M): < 1% | inhibition at 10 µM (UACC-257): 35.5% | logP [1]: 1.48
